Assay results as given in publication PMC4405350, “From Broad-Spectrum Biocides to Quorum Sensing Disruptors and Mussel Repellents: Antifouling Profile of Alkyl Triphenylphosphonium Salts” (PLoS ONE, 2015).

Assays:
[1] = tested on: Mytilus galloprovincialis; assay: Mussel foot retraction assay; format: in vivo; conditions: for Mussels showing foot retraction: 200 μM, highest test concentration; for EC50: Mytilus galloprovincialis, dripped on the foot, read-out: Concentration required to cause foot repulsion in 50% of mussels
Description: The mussel Mytilus galloprovincialis was used as target organism. Individuals of 4.0–4.5 cm shell length were collected at intertidal rocky shore of the outer Ría de Vigo (NW Spain). Animals were kept in running seawater aquarium tanks with open-flow design for few days and fed daily by pulses with a mixture of the microalgae (Tahitian Isochrysis aff. galbana) and sediment from the seafloor below the mussel rafts.
Mussel foot retracting assay was conducted following the method reported by Hayashi and Miki. Briefly, subsamples of individuals from the maintenance tanks were transferred to containers filled with 1-μm FSW. After 30 min, the posterior adductor muscle (PAM) was cut to open both animal´s valves as shown in S1A Fig, and byssus filaments were removed from their insertion with the soft tissues. Animals were disposed individually on flexible innocuous plasticine basis as a holder still for 15 min in FSW. The latter disposition avoided animal´s manipulation before and after each test solution was dripped directly on the foot of immobilized animals. FSW was removed and animals exposed their internal cavities in dry conditions for the dripping actions but maintaining a humidity layer over soft tissues.
Initially two different controls (negative and positive) were considered. As negative control, 2.5 μl of DMSO in 0.2-μm FSW was used. […] After the negative control test, the animals were disposed back in 1-μm FSW for 15 min. With regard to the positive control, 1000 ppm of CuSO4 was used. For the latter case, only animals that did react to such positive control were used. After this second control, animals were disposed back in 1-μm FSW, this time for 25 min in order to remove completely any rest of copper. All animals considered for the experiment have accomplished the two controls satisfactorily.
Different concentrations (6.25, 12.5, 25, 50, 100 and 200 μM) of two test compounds, 3 and 16 were used. Stocks of 40 mM for the two compounds under investigation were prepared in DMSO. Posterior dilution actions to get the distinct concentrations desired were prepared with 0.2-μm FSW. Concentrations were tested in ascending order from 6.25 to 200 μM. Animals were kept in 0.2-μm FSW for 15 min at each time interval between sampling with the aim to wash the internal soft tissues. After each removal of seawater, animals were ready to use again.
Eight series of ten animals each were considered for retracting muscle foot analysis and each test compound. Each potential foot-reacting substance was individually dripped on the foot of the mussels (S1B Fig) and the animal’s reactions were noted. […]

[2] = Solubility in water (stock preparation); format: physicochemical; conditions: for 40-mM stock
Description: Indeed, the inhibitions observed in violacein production for long alkyl chains (10–18, 20) were clearly correlated to the biocidal effect exerted by these compounds, with ‘therapeutic ratios’ (IC50 for growth inhibition/IC50 for violacein inhibition) around 1, in general (Table 2). Note that, as the length of the hydrocarbon chain becomes shorter, this ratio increased (8–9). […] To evaluate these compounds in further detail, […] stock solutions were prepared […] to avoid the use of high concentrations of DMSO in the bioassays. […] Serial two-fold dilutions (500–3.9 μM) were assayed. Consequently, the highest amount of DMSO used in the assay was 0.25% (v/v). […] Growth inhibitory effects are only observed at 500 μM, particularly for compound 7 (Fig 6D).

[3] = set-up: method as in earlier work; conditions: cited from earlier work
Mushroom tyrosinase = assay: Tyrosinase fluorescence quenching (fluorescence spectroscopy); format: binding, Agaricus bisporus; conditions: 280 nm excitation, 0–30 μM quencher
Description: Fluorescence measurements of tyrosinase solutions were performed using an Edinburgh Instruments LifeSpec II fluorescence spectrometer, exciting the complexes at 280 nm with an Edinburgh Instruments EPLED-280 subnanosecond pulsed diode source (typically pulse width at half maximum around 860 ps, repetition rate 10 MHz) and using Edinburg Instruments F900 acquisition software. A multichannel plate photomultiplier was used as the detector using single photon counting technique. Lifetime estimation was made using instrument response function (IRF) reconvolution analysis with FAST software by Edinburgh Instruments, providing a temporal resolution around 0.2 ns. A blank medium without enzyme was used to confirm that the collected fluorescence comes from the enzyme molecules and any influence of the fluorescence of the quencher and buffer components on the enzyme fluorescence is negligible. […]
Fluorescence of enzymes is very sensitive to conformational changes of the protein structure. The interaction of tyrosinase inhibitors can be evaluated by the analysis of the intrinsic tyrosinase fluorescence when tyrosinase and inhibitor (quencher) molecules are mixed in a solution. In particular, we have evaluated the effect of the tyrosinase inhibitor 16. Quenching of tyrosinase fluorescence is expected as a consequence of conformational alterations induced by the quencher. […]

[4] = biological target: Mushroom tyrosinase (EC 1.14.18.1) (Agaricus bisporus, UniProt C7FF04); assay: Tyrosinase inhibition assay (L-Dopa, dopachrome at 475 nm); format: biochemical; conditions: 15 and 30 μM inhibitor
Sequence of Mushroom tyrosinase (EC 1.14.18.1) (G1K3P4 entry or part of it): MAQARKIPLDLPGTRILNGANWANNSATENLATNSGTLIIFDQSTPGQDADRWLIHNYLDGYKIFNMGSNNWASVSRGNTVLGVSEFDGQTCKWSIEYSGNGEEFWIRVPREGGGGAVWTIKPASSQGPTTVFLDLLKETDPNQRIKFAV
Sequence of Mushroom tyrosinase (EC 1.14.18.1) (C7FF04 1-392): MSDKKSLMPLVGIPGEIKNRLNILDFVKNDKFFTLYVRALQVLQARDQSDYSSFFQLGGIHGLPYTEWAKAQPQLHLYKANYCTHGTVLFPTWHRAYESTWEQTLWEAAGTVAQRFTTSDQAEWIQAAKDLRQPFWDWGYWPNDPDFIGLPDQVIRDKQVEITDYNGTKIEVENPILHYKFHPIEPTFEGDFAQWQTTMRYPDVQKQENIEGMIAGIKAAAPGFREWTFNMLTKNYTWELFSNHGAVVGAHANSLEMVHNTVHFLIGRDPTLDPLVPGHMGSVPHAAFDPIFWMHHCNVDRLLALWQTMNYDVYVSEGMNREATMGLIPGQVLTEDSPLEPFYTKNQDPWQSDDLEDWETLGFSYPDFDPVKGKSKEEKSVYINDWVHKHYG
Description: Tyrosinase inhibition assays were conducted as described in [52] with slight modifications. First, in order to characterize the Michaelis-Menten parameters of the enzyme kinetics, 100 μl of a mushroom tyrosinase solution (25 U) in sodium phosphate buffer (50 mM, pH 6.5) were pipetted in each well of a flat-bottom microtiter plate (Nunc 167008). Two-fold dilutions of L-Dopa, from 4.8 to 0.075 mM (final concentrations) were mixed (100 μl) with the enzyme solution. The enzymatic reaction was followed by measuring the absorbance at 475 nm every 30 s over 15 min, with shaking (150 rpm) between measurements. Temperature was kept constant at 30 °C. The values of KM and vmax under these conditions were obtained from Lineweaver-Burk plots. For tyrosinase inhibition assays, each well of the microtiter plate was filled with 100 μl of a mushroom tyrosinase solution and the appropriate amount of the test substance dissolved in DMSO. The compounds were pre-incubated with the enzyme at 30 °C for 10 min. Subsequently, the enzymatic reaction was triggered by addition of 100 μl of L-Dopa (1.2 mM test concentration). Formation of dopachrome was followed by measuring the absorbance at 475 nm as described above.

Which “Mussels showing foot retraction” value [1] does the source give for C/C=C/C[P+](c1ccccc1)(c1ccccc1)c1ccccc1 [Compound 3] here?
The value was 94–95%.

What about the EC50 [1] of the same compound?
Its EC50 is 47 µM.

For CCCCC[P+](c1ccccc1)(c1ccccc1)c1ccccc1 [Compound 7], which Solubility in water [2] is on record?
The Solubility in water was “poor solubility in water”.

Which results are given for CCCCCCCCCCCCCCCC[P+](c1ccccc1)(c1ccccc1)c1ccccc1 [Compound 16]?
cmc threshold [3]: around 100 μM; Stern-Volmer quenching constant KSV (Mushroom tyrosinase): about 4490 M^-1; Type of tyrosinase inhibition (Lineweaver-Burk plots) [4]: non-competitive inhibition; Mussels showing foot retraction [1]: 94–95%; EC50 [1]: 34 µM
